Patent US7763650B2, “Pharmaceutical compound and method” (Medipharma S.A., priority 2006, dated 2010)

Legend:
[1] = system: Maximal electroshock seizures; assay: Maximal electroshock seizure (MES) anticonvulsant test; assay type: in vivo; conditions: mice; for MES test: Effective doses 50: ip, at time of peak effect, micromols per Kg of mouse weight; for Relative Power in relation to 2-propylpentanoic acid (Valproic acid): MES test
Protocol: In Vivo Experiments: The pharmacological tests were performed according to standard procedures provided by the Antiepileptic Drug Development (ADD) Program of the National Institute of Neurological and Communicative Disorders and Stroke (NINCDS). Anticonvulsant tests: Maximal electroshock seizures were elicited in mice by delivering a 60 Hz/50 mA electrical stimulus for 0.2 sec. via ear clip electrodes. A drop of saline solution applied on each ear before placing the electrodes ensures adequate electrical contact. In these conditions, maximal seizures are produced in virtually all normal mice. The maximal seizure typically consists of a short period of tonic flexion followed by a longer period of tonic extension of the hind limbs and a final clonic episode. Blockade of the hind limbs tonic extensor component due to the drug treatment is taken as the end point. […] Determination of the Time of Peak Effect (TPE): […] The percentages of protection or neurotoxicity are recorded and plotted against time and the TPEs are determined by visual inspection of the graphs. Estimation of the ED50s: Groups of 8 animals per dose are injected via ip. […] The percentages of protection at each dose (converted to probit) were plotted against log-doses.

[2] = system: mice; assay: RotoRod minimal neurotoxicity test; assay type: in vivo; conditions: for Protection: Rotorot test on Effective Doses 50: mouse, in vivo
Protocol: In Vivo Experiments: The pharmacological tests were performed according to standard procedures provided by the Antiepileptic Drug Development (ADD) Program of the National Institute of Neurological and Communicative Disorders and Stroke (NINCDS). Neurotoxicity tests: The RotoRod test is used exclusively in mice to assess minimal neurotoxicity. A normal mouse can maintain its equilibrium on a rotating rod (6 rpm) for long periods of time. Neurological deficit is indicated by failure to keep walking on this rotating rod in each of three trials of 1 min each. Estimation of the neurotoxic effects: Groups of 8 animals per dose were injected and tested with the RotoRod test. The percentages of animals showing minimal neurotoxicity were recorded and the higher dose producing neurotoxic effects is reported.

CCCC(CCC)C(=O)O[C@H]1[C@H](OC(=O)C(CCC)CCC)[C@@H](OC(=O)C(CCC)CCC)[C@H](OC(=O)C(CCC)CCC)[C@@H](OC(=O)C(CCC)CCC)[C@H]1OC(=O)C(CCC)CCC [Example 1, (±)1,2,3,4,5,6-hexa-O-(2-propylpentanoyl)-myo-inositol]
MES test: Effective doses 50 [1]: 100 µmol/kg
Rotorod: animals showing neurotoxicity / animals tested ([2]; mice, dose not given): 0/6

(±)-5,6-Di-O-(2-propylpentanoyl)-1,2:3,4-di-O-cyclohexyl-O-myo-inositol [Example 2]
Relative Power in relation to 2-propylpentanoic acid (Valproic acid) [1]: 35
MES test: Effective doses 50 [1]: 80 µmol/kg
Protective index (Rotorod neurotoxic dose / MES ED50) ([2]; ratio of Rotorod dose to MES ED50, mice): 12

CCCC(CCC)C(=O)OC1C(O)C(O)C(O)C(O)C1OC(=O)C(CCC)CCC (racemic) [Example 5, (±)-3,4-Di-O-(2-propylpentanoyl)-myo-inositol]
Relative Power in relation to 2-propylpentanoic acid (Valproic acid) [1]: 35
MES test: Effective doses 50 [1]: 35 µmol/kg
Protection: Rotorot test on Effective Doses 50 [2]: 12

CCCC(CCC)C(=O)O [Valproic acid, valproic acid, reference compound]
Relative Power in relation to 2-propylpentanoic acid (Valproic acid) [1]: 1
MES test: Effective doses 50 [1]: 1010 µmol/kg

CCCC(CCC)C(=O)OC1C(O)C(O)C(OC(=O)C(CCC)CCC)C(OC(=O)C(CCC)CCC)C1OC(=O)C(CCC)CCC (racemic) [Example 4, (±)-3,4,5,6-tetra-O-(2-propylpentanoyl)-myo-inositol]
Relative Power in relation to 2-propylpentanoic acid (Valproic acid) [1]: 9
MES test: Effective doses 50 [1]: 100 µmol/kg
Protection: Rotorot test on Effective Doses 50 [2]: 6
